Source: ChEMBL document CHEMBL1697781, “Assessment of the health effects of chemicals in humans: II. Construction of an adverse effects database for QSAR modeling” (Curr Drug Discov Technol, 2004)

Tests used:
Conditions in all cases: human; call rule not given here
Hepatotoxicity [1] = assay: FDA HLAED, alkaline phosphatase increase
Hepatotoxicity [2] = assay: FDA HLAED, lactate dehydrogenase (LDH) increase
Hepatotoxicity [3] = assay: FDA HLAED, serum glutamic oxaloacetic transaminase (SGOT) increase
Hepatotoxicity [4] = assay: FDA HLAED, gamma-glutamyl transferase (GGT) increase
Hepatotoxicity [5] = assay: FDA HLAED, serum glutamic pyruvic transaminase (SGPT) increase
Hepatotoxicity [6] = assay: FDA HLAED, liver enzyme composite activity
Wherever GGT Increase - Index Value is given: reference of the scale not given here.
Wherever LDH Increase - Index Value is given: reference of the scale not given here.

Compound | Alkaline Phosphatase Increase - Activity Score (Hepatotoxicity [1]) | Alkaline Phosphatase Increase - Index Value (Hepatotoxicity [1]) | Alkaline Phosphatase Increase - Number of Reports (Hepatotoxicity [1]) | LDH Increase - Activity Score (Hepatotoxicity [2]) | LDH Increase - Index Value (Hepatotoxicity [2]) | LDH Increase - Number of Reports (Hepatotoxicity [2]) | SGOT Increase - Activity Score (Hepatotoxicity [3]) | SGOT Increase - Index Value (Hepatotoxicity [3]) | SGOT Increase - Number of Reports (Hepatotoxicity [3]) | GGT Increase - Activity Score (Hepatotoxicity [4]) | GGT Increase - Index Value (Hepatotoxicity [4]) | GGT Increase - Number of Reports (Hepatotoxicity [4]) | SGPT Increase - Activity Score (Hepatotoxicity [5]) | SGPT Increase - Index Value (Hepatotoxicity [5]) | SGPT Increase - Number of Reports (Hepatotoxicity [5]) | Composite Activity - Active (Hepatotoxicity [6]) | Composite Activity - Marginal (Hepatotoxicity [6]) | Composite Activity - Score (Hepatotoxicity [6]) | also measured
O=c1[nH]c(=O)n([C@H]2C[C@H](O)[C@@H](CO)O2)cc1C(F)(F)F [TRIFLURIDINE] | Inactive | 0 | < 4 | Inactive | 0 | < 4 | Inactive | 0 | < 4 | Inactive | 0 | < 4 | Inactive | 0 | < 4 | 0 | 0 | Inactive | 
CN1C(=O)OC(C)(C)C1=O [TRIMETHADIONE] | Active | No Shipping Units | >= 4 | Marginally Active | No Shipping Units | >= 4 | Active | No Shipping Units | >= 4 | Marginally Active | No Shipping Units | >= 4 | Marginally Active | No Shipping Units | >= 4 | 2 | 3 | Active | 
COc1cc(NCc2ccc3nc(N)nc(N)c3c2C)cc(OC)c1OC [TRIMETREXATE] | Inactive | 38.8 | < 4 | Inactive | 38.8 | < 4 | Active | 77.5 | < 4 | Inactive | 0 | < 4 | Inactive | 38.8 | < 4 | 1 | 0 | Inactive | 
CC(CN(C)C)CN1c2ccccc2CCc2ccccc21 (stereo unspecified) [TRIMIPRAMINE] | Inactive | 0 | < 4 | Inactive | 0 | < 4 | Inactive | 0 | < 4 | Inactive | 0 | < 4 | Inactive | 0 | < 4 | 0 | 0 | Inactive | 
C[C@H](CCC(=O)O)[C@H]1CC[C@H]2[C@@H]3[C@@H](O)C[C@@H]4C[C@H](O)CC[C@]4(C)[C@H]3CC[C@]12C [URSODIOL] | Active | 14.5 | >= 4 | Inactive | 4.8 | < 4 | Active | 9.7 | >= 4 | Inactive | 4.8 | < 4 | Inactive | 4.8 | < 4 | 2 | 0 | Active | 
CC(C)[C@H](N)C(=O)OCCOCn1cnc2c(=O)[nH]c(N)nc21 [VALACYCLOVIR] | Inactive | No Shipping Units | < 4 | Inactive | 0 | < 4 | Inactive | No Shipping Units | < 4 | Inactive | 0 | < 4 | Inactive | No Shipping Units | < 4 | 0 | 0 | Inactive | 
CC(=O)O[C@H]1C[C@@H]2CC[C@@H]3[C@H](CC[C@@]4(C)[C@H]3C[C@H]([N+]3(C)CCCCC3)[C@@H]4OC(C)=O)[C@@]2(C)C[C@@H]1N1CCCCC1.[Br-] [VECURONIUM BROMIDE] | Inactive | 0 | < 4 | Inactive | 1 | < 4 | Inactive | 1 | < 4 | Inactive | 0 | < 4 | Inactive | 1 | < 4 | 0 | 0 | Inactive | 
COc1ccc(C(CN(C)C)C2(O)CCCCC2)cc1 (stereo unspecified) [VENLAFAXINE] | Inactive | 1.3 | >= 4 | Inactive | 0.7 | >= 4 | Inactive | 2.7 | >= 4 | Inactive | 0.9 | >= 4 | Inactive | 2.3 | >= 4 | 0 | 0 | Inactive | 
CCC1=C[C@@H]2CN(C1)Cc1c([nH]c3ccccc13)[C@@](C(=O)OC)(c1cc3c(cc1OC)N(C)[C@H]1[C@@](O)(C(=O)OC)[C@H](OC(C)=O)[C@]4(CC)C=CCN5CC[C@]31[C@@H]54)C2 [VINORELBINE] | Inactive | 2.8 | < 4 | Active | 4.7 | >= 4 | Inactive | 0.9 | < 4 | Inactive | 0.9 | < 4 | Inactive | 1.9 | < 4 | 1 | 0 | Inactive | 
COc1cc(C(=O)NS(=O)(=O)c2ccccc2C)ccc1Cc1cn(C)c2ccc(NC(=O)OC3CCCC3)cc12 [ZAFIRLUKAST] | Inactive | 2.6 | >= 4 | Marginally Active | 3.7 | >= 4 | Active | 10.1 | >= 4 | Inactive | 0.5 | < 4 | Active | 9.5 | >= 4 | 2 | 1 | Active | 
Nc1ccn([C@H]2CC[C@@H](CO)O2)c(=O)n1 [ZALCITABINE] | Inactive | 2.9 | < 4 | Inactive | 1.4 | < 4 | Active | 5.7 | >= 4 | Inactive | 1.4 | < 4 | Inactive | 2.9 | < 4 |  |  |  | Composite Activity - Active (Hepatotoxicity [6]; Liver): 1; Composite Activity - Marginal (Hepatotoxicity [6]; Liver): 0; Composite Activity - Score (Hepatotoxicity [6]; Liver): Inactive
Cc1cn([C@H]2C[C@H](N=[N+]=[N-])[C@@H](CO)O2)c(=O)[nH]c1=O [ZIDOVUDINE] | Active | 5.1 | >= 4 | Active | 5.7 | >= 4 | Active | 12.7 | >= 4 | Inactive | 0.9 | < 4 | Active | 4.8 | >= 4 | 4 | 0 | Active | 
